For 30 compounds, TGI and GI50 results are on record in PubChem BioAssay (NCI).

Values joined by “and” are separate entries in the source; they are usually repeats but may differ in a detail not shown here. Identical values can stand only once.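 A five-concentration, 48-hour dose response in 96-well plates underlies each endpoint, interpolated linearly between surrounding concentrations. GI50 = concentration required for 50% inhibition of growth. TGI: total growth inhibition.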

Holding throughout (experiment): NCI tumour cell line growth inhibition, 48 h
Assay [1] deals with A549 NSCLC.
Assay [2] relates to ACHN renal.
Assay [3] has as its system HOP-92 NSCLC.
The subject of assay [4] is HT29 colon.
The test system of assay [5] is MALME-3M melanoma.
Assay [6] concerns OVCAR-5 ovarian.
Assay [7] concerns KM12 colon.
The test system of assay [8] is K-562 leukemia.
The test system of assay [9] is PC-3 prostate.
Assay [10] deals with T-47D breast.

As for `COC(=O)C1=C(\O)C[C@@]2(C)CC[C@@H](C(=O)OC)C2C/C=C\1C(=O)OC` (stereo not given in full), the TGI in [1], in assay [2], in assay [3], in assay [4], in assay [5] and in assay [6] was over 100 µM each time. In assay [7], this compound displayed a TGI of over 100 µM.

For the compound `O=C(NC1C(=O)NNC1c1ccccc1Cl)c1ccccc1` (stereo not given), the TGI in assay [1], in [2], in assay [3], in assay [4], in assay [5] and in assay [8] was over 100 µM each time. For the same compound, the TGI in assay [6] and in [7] was over 100 µM each time.

For the compound `CCCCC(C(=O)CCC(=O)Nc1ccc(Cl)cc1)C(=O)C(C)C` (stereo not given), the TGI in assay [1], in [2], in assay [3], in assay [4], in [5] and in assay [8] was over 100 µM in each case. Also, the TGI in [6] and in assay [7] was over 100 µM each time.

Regarding `Nc1ccc(C(=O)Nc2ccccc2N)cc1`, the TGI in assay [1] is over 100 µM; in assay [2], over 100 µM; in [3] it was over 100 µM; in [4], over 100 µM; in assay [5], 30.3 µM; in assay [8], over 100 µM. Besides, the TGI is over 100 µM in assay [9], over 82.7 µM in [6] and over 100 µM in [7].

Regarding `COc1c(C)c(O)c2c(c1C)OC(c1ccccc1)CC2=O` (stereo not given), the TGI in assay [1] is over 100 µM; in assay [2], over 100 µM; in [3], over 100 µM; in assay [4], over 100 µM; in assay [5] it was 83.1 µM; in assay [8] it was over 100 µM. Besides, the TGI in assay [6] and in [7] was over 100 µM each time.

In the case of `O=C(O)c1cn(C2CC2)c2cc(N3CCN(Cc4ccc5ccccc5c4O)CC3)c(F)cc2c1=O`, the GI50 is 3.29 µM in assay [1], 2.15 µM in [3], 4.35 µM in assay [4] and over 100 µM in [10]. Further, the TGI in assay [1] was over 100 µM; in [3] it was 5.44 µM; in [4], over 100 µM; in [10], over 100 µM.

Turning to `Nc1nc2ncn(CC(O)COC(=O)c3ccccc3)c2c(=O)[nH]1` (stereo not given), the TGI in assay [1], in [2], in assay [3], in [4], in assay [5] and in assay [8] was over 100 µM throughout. The TGI in assay [6] and in assay [7] was over 100 µM in each case.

For the compound `CC1CC(c2ccc(Cl)c(Cl)c2)=Nc2ccccc2S1` (stereo not given), the TGI in [1], in assay [2], in assay [3], in assay [4], in assay [5] and in [8] was over 100 µM each time. Besides, the TGI in assay [6] and in assay [7] was over 100 µM in each case.

As for `Cc1ccc(S(=O)(=O)CC2(Br)CCc3ccccc3C2=O)cc1` (stereo not given), the TGI in assay [1] is over 100 µM; in [2], 38.2 µM; in [3], over 100 µM; in assay [4], 58.6 µM; in assay [5] it was 68.6 µM; in assay [8], over 100 µM. Besides, the TGI in assay [9], in assay [6] and in [7] was over 100 µM throughout.

In the case of `COc1cc(/C=C/c2cc(O)c(C/C=C(\C)CC/C=C(\C)CO)c(O)c2)cc2c1O[C@]1(C)CC[C@@H](O)C(C)(C)[C@H]1C2`, the GI50 in [1] was 3.96 µM and 9.59 µM; in assay [4], 31.1 µM; in assay [10] it was over 62.4 µM; in assay [6] it was over 100 µM. Also, the TGI is over 62.5 µM in assay [1]; over 71.4 µM in assay [2]; over 84.6 µM in assay [3]; over 100 µM in assay [4]; over 100 µM in assay [10]; over 100 µM in [9]. Moreover, the TGI in assay [6] and in [7] was over 100 µM in each case.

Turning to `COC(=O)/C(=N/NC(C)(C)C)C(C(=O)OC)C(=O)C(=O)Nc1nc2ccc([N+](=O)[O-])cc2s1` (stereo not given), the TGI in [1], in [2], in assay [4], in assay [5], in [8] and in assay [6] was over 100 µM in each case. The compound further displayed a TGI in assay [7] of over 100 µM.

As to `CN1CCc2cc3c4cc2C1Cc1ccc(cc1)Oc1cc(ccc1O)CC1c2c(cc(O)c(c2O4)O3)CCN1C` (stereo not given), the TGI in assay [1] stood at 6.11 µM; in assay [2], 20.7 µM; in assay [3], 8.13 µM; in [4], 9.42 µM; in [5] it was 3.56 µM; in [8] it was 4.54 µM. For the same compound, the TGI was determined as 14.8 µM in [6] and 4.43 µM in [7].

For `NCC1(N2CCOCC2)C2CCCC21CNc1ccccc1` (stereo not given), the TGI in assay [1], in assay [2], in assay [3], in assay [4], in assay [5] and in [8] was over 100 µM throughout. In addition, the TGI in assay [6] and in [7] was over 100 µM in each case.

As to `COc1ccc2c(c1)N(CCO)C1=C(C(=O)OC1)C2c1ccc(OC)c(OC)c1` (stereo not given), the GI50 in assay [1] was 3.86 µM; in assay [2] it was 6.3 µM; in [4] it was 2.73 µM; in assay [10], over 100 µM; in [8], 1.26 µM; in assay [9] it was 3.03 µM. The GI50 is 5.76 µM in assay [6] and 1.43 µM in assay [7]. In addition, the TGI was over 100 µM in assay [1]; over 100 µM in assay [2]; 7.51 µM in assay [4]; over 100 µM in [10]; over 100 µM in assay [8]; over 100 µM in [9]. Further, the TGI was over 100 µM in [6] and 14.7 µM in assay [7].

As to `N#CC1C(=O)NC(=O)C1=O` (stereo not given), the TGI in assay [2], in [3], in [4], in assay [5], in assay [8] and in assay [6] was over 100 µM each time. The same compound showed a TGI in assay [7] of over 100 µM.

As for `O=C1c2ccccc2C(=O)c2c1ccc1c2N=C(c2ccc(Br)cc2)CC(c2cccc3ccccc23)N1` (stereo not given), the TGI in assay [1], in [2], in assay [4], in assay [5], in assay [8] and in [6] was over 100 µM each time. Besides, in [7], the TGI is over 100 µM.

On to `N#Cc1cn(-c2c3ccccc3nc3ccccc23)c(=O)[nH]c1=O`, for which the TGI in assay [1] worked out at 24 µM; in assay [2], 34.8 µM; in [3], 23.1 µM; in assay [4] it was 28.5 µM; in assay [5], 24.3 µM; in assay [8] it was 23.3 µM. For the same compound, the TGI in [6] amounted to 32.9 µM; in [7] it was 79.5 µM.

For the compound `COc1cc(Cn2c(SCC(=O)Nc3ccc(Cl)cc3)nc3ccccc3c2=O)cc(OC)c1OC`, the GI50 in assay [1] was 4.66 µM; in assay [2] it was 3.15 µM; in [3], 2.26 µM; in assay [10], 2.16 µM; in [9], 16.7 µM; in assay [6], 14.8 µM. For the same compound, the GI50 in [7] was 32.3 µM. Moreover, the TGI in assay [1] was 21.1 µM; in [2], 11.8 µM; in assay [3], 9.12 µM; in assay [10] it was 8.21 µM; in [9] it was over 100 µM; in assay [6], over 100 µM. For the same compound, the TGI in assay [7] is over 100 µM.

Turning to `CC1(C)CC(N2CCN(C3CC(C)(C)NC(C)(C)C3)CC2)CC(C)(C)N1`, the TGI in assay [1], in [2], in [3], in [4], in assay [8] and in assay [6] was over 100 µM throughout. The same compound showed a TGI in assay [7] of over 100 µM.

On to `O=C(O)COc1ccc(C(=O)/C(SS/C(C(=O)c2ccc(OCC(=O)O)c(Cl)c2Cl)=C2\C=C(c3ccccc3Cl)SS2)=C2/C=C(c3ccccc3Cl)SS2)c(Cl)c1Cl`, for which the TGI is over 100 µM in assay [1]; over 68.9 µM in assay [2]; 24.3 µM in assay [3]; over 31.6 µM in assay [4]; over 100 µM in assay [5]; over 49 µM in assay [8]. Moreover, the TGI is over 100 µM in [6] and over 71.4 µM in [7].

Regarding `CCCCCCSc1nc(COC(=O)NC)c(COC(=O)NC)n1C`, the TGI in [1], in assay [2], in assay [4], in assay [10], in [8] and in assay [9] was over 100 µM in each case. The TGI in [6] and in [7] was over 100 µM throughout.

For the compound `Cc1ccc2nc3c(C)cc(=O)cc-3sc2c1`, the TGI in [1] is 54.6 µM; in assay [2], 53.1 µM; in assay [3] it was 76.7 µM; in assay [4], over 100 µM; in assay [5] it was 81.1 µM; in assay [8], 31.5 µM. Besides, the TGI in assay [6] was found to be 61 µM; in assay [7], 65.4 µM.

Turning to `NC(=O)c1cc([N+](=O)[O-])cc([N+](=O)[O-])c1`, the TGI in assay [1], in [2], in assay [3], in assay [4], in [5] and in assay [8] was over 100 µM each time. Moreover, the TGI in assay [6] and in assay [7] was over 100 µM in each case.

On to `CC(C)COC(c1ccc2c(c1)OCO2)C(C)Br` (stereo not given), for which the TGI was over 100 µM in assay [1]; over 100 µM in assay [2]; 68.8 µM in [3]; 45.5 µM in assay [4]; 36.1 µM in assay [5]; over 100 µM in assay [8]. The TGI in [9] is over 100 µM; in assay [6], 49.3 µM; in assay [7], 55 µM.

In the case of `O=C1CC[C@@H](NC(=O)Cc2ccccc2)C(=O)N1`, the TGI in assay [1], in [2], in assay [3], in [4], in [5] and in assay [8] was over 100 µM throughout. In addition, the TGI in assay [6] and in assay [7] was over 100 µM throughout.

On to `CCCCCCCCCCCC(=O)OC(COC(N)=O)COc1ccc(Cl)cc1` (stereo not given), for which the TGI in assay [1] was 36.8 µM; in [2] it was over 100 µM; in assay [4] it was 40.6 µM; in assay [5], 48.3 µM; in assay [8], 35.1 µM; in [7], 61.1 µM.

Consider `O=C(/C=C/c1ccc(O)cc1)c1cc(Cl)ccc1O`, for which the TGI in [1] was over 100 µM; in assay [2], over 100 µM; in assay [3], over 100 µM; in [4], over 100 µM; in assay [5] it was over 100 µM; in assay [8] it was 71.3 µM. Also, the TGI in assay [7] was over 100 µM.

For the compound `Cc1ccc(NC(=O)C(=O)CC(=O)c2ccccc2)cc1C`, the TGI in assay [1], in assay [2], in assay [3], in [4], in [5] and in assay [6] was over 100 µM in each case. The compound further returned a TGI in [7] of over 100 µM.

`c1ccc2c(c1)N=C(c1ccc3ccccc3c1)CC(c1cccc3ccccc13)S2` (stereo not given): the TGI in assay [1] was over 100 µM; in [2], over 100 µM; in assay [4] it was over 100 µM; in assay [5], over 100 µM; in [8], 54 µM; in [6], over 100 µM. The TGI in assay [7] was over 100 µM.

Turning to `Cn1cnc([N+](=O)[O-])c1Sc1nc2ccc([N+](=O)[O-])cc2[nH]1`, the TGI in [1] was over 100 µM; in assay [2], over 100 µM; in [3] it was 39.8 µM; in assay [4] it was over 100 µM; in [8], 69.2 µM; in [6], over 100 µM. Besides, the TGI in assay [7] was over 100 µM.
